Laboratory results: paper PMC11191317, “PNSC928, a plant-derived compound, specifically disrupts CtBP2-p300 interaction and reduces inflammation in mice with acute respiratory distress syndrome” (Biology Direct, 2024)

Experiments:
[1] = molecular target: T1, CtBP2-p300^BRD interaction (Mus musculus, UniProt B2RWS6+P56546); test: In vitro pulldown assay with His-CtBP2 and GST-p300^BRD; assay type: binding; settings: PNSC928 0, 11.8, 23.6, and 47.2 µM; 80 nM GST-p300^BRD and 40 nM His-CtBP2
T1 construct: R1 (1-1000 amino acids, aa), R2 (1001–1201 aa), R3 (1202–1810 aa); made in house; host or cells: E. coli BL21
T1 sequence (B2RWS6 1001-1201 limits assumed): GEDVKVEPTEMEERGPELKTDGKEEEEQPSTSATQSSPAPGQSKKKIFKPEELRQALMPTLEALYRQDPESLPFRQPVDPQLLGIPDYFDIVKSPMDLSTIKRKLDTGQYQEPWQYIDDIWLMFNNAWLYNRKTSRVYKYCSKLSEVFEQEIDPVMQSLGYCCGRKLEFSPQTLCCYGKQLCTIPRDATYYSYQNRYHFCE
T1 sequence (P56546 whole entry, the tested form may be a part): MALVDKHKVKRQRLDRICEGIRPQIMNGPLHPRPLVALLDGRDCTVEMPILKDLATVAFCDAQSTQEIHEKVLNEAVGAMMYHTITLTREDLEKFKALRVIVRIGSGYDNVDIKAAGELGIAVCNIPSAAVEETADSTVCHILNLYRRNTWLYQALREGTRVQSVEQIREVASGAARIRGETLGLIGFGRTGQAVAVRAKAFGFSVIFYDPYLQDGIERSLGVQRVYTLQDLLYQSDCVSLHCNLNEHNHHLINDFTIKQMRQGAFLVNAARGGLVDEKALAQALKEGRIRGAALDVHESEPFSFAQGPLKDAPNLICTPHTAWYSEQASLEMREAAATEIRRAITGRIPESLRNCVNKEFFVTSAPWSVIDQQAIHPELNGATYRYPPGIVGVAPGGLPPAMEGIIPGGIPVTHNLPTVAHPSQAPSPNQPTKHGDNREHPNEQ
Protocol: Fig. 4 Identification of PNSC928 and determination of its in vitro and in vivo effects on disruption of CtBP2-p300 interaction. (A) A schematic representation illustrating four regions of the p300 amino acid sequence. (B) Co-IP results. Different combinations of plasmids were cotransfected into MPAEpiC cells. After a 48-hour incubation, cells were lysed and used for immunoprecipitation with anti-Flag agarose. The input and output proteins were probed with anti-Flag and anti-Myc antibodies. n = 3. (C) A schematic representation illustrating the in vitro AlphaScreen setup. (D) AlphaScreen signals for different concentrations of His-CtBP2 and GST-p300^BRD. (E) Chemical structure of PNSC928. (F) IC50 of PNSC928 disrupting CtBP2-p300^BRD interaction. (G and H) In vitro pulldown assay in a reaction consisting of His-CtBP2, GST-p300^BRD, and incremental concentrations of PNSC928 (0, 11.8, 23.6, and 47.2 µM). (G) Pulldown with Ni-NTA beads; (H) Pulldown with GST beads.
(§1) To probe this interaction, we established an AlphaScreen system that utilized GST-p300^BRD and His-CtBP2, binding to donor and acceptor beads, respectively (Fig. 4C). […] In vitro assays assessed the effects of PNSC928 on the CtBP2-p300^BRD interaction. […] Furthermore, we assessed the impact of combined LPS and PNSC928 treatment on the expression of key molecules in the NF-κB signaling pathway.

CtBP2-p300 interaction = molecular target: T2, CtBP2-p300 interaction (Mus musculus, UniProt B2RWS6+P56546); test: Immunoprecipitation with anti-CtBP2 in MPAEpiC cells co-treated with LPS and PNSC928; assay type: cell-based; settings: LPS + PNSC928 0, 11.8, 23.6, and 47.2 µM, 6 h
T2 construct: In vivo immunoprecipitation with anti-CtBP2-coated protein G beads in MPAEpiC cells; endogenous in cells; host or cells: MPAEpiC (mouse pulmonary alveolar epithelial cells)
T2 sequence (P56546 whole entry): as the sequence (P56546 whole entry, the tested form may be a part) above
T2 sequence (B2RWS6 whole entry): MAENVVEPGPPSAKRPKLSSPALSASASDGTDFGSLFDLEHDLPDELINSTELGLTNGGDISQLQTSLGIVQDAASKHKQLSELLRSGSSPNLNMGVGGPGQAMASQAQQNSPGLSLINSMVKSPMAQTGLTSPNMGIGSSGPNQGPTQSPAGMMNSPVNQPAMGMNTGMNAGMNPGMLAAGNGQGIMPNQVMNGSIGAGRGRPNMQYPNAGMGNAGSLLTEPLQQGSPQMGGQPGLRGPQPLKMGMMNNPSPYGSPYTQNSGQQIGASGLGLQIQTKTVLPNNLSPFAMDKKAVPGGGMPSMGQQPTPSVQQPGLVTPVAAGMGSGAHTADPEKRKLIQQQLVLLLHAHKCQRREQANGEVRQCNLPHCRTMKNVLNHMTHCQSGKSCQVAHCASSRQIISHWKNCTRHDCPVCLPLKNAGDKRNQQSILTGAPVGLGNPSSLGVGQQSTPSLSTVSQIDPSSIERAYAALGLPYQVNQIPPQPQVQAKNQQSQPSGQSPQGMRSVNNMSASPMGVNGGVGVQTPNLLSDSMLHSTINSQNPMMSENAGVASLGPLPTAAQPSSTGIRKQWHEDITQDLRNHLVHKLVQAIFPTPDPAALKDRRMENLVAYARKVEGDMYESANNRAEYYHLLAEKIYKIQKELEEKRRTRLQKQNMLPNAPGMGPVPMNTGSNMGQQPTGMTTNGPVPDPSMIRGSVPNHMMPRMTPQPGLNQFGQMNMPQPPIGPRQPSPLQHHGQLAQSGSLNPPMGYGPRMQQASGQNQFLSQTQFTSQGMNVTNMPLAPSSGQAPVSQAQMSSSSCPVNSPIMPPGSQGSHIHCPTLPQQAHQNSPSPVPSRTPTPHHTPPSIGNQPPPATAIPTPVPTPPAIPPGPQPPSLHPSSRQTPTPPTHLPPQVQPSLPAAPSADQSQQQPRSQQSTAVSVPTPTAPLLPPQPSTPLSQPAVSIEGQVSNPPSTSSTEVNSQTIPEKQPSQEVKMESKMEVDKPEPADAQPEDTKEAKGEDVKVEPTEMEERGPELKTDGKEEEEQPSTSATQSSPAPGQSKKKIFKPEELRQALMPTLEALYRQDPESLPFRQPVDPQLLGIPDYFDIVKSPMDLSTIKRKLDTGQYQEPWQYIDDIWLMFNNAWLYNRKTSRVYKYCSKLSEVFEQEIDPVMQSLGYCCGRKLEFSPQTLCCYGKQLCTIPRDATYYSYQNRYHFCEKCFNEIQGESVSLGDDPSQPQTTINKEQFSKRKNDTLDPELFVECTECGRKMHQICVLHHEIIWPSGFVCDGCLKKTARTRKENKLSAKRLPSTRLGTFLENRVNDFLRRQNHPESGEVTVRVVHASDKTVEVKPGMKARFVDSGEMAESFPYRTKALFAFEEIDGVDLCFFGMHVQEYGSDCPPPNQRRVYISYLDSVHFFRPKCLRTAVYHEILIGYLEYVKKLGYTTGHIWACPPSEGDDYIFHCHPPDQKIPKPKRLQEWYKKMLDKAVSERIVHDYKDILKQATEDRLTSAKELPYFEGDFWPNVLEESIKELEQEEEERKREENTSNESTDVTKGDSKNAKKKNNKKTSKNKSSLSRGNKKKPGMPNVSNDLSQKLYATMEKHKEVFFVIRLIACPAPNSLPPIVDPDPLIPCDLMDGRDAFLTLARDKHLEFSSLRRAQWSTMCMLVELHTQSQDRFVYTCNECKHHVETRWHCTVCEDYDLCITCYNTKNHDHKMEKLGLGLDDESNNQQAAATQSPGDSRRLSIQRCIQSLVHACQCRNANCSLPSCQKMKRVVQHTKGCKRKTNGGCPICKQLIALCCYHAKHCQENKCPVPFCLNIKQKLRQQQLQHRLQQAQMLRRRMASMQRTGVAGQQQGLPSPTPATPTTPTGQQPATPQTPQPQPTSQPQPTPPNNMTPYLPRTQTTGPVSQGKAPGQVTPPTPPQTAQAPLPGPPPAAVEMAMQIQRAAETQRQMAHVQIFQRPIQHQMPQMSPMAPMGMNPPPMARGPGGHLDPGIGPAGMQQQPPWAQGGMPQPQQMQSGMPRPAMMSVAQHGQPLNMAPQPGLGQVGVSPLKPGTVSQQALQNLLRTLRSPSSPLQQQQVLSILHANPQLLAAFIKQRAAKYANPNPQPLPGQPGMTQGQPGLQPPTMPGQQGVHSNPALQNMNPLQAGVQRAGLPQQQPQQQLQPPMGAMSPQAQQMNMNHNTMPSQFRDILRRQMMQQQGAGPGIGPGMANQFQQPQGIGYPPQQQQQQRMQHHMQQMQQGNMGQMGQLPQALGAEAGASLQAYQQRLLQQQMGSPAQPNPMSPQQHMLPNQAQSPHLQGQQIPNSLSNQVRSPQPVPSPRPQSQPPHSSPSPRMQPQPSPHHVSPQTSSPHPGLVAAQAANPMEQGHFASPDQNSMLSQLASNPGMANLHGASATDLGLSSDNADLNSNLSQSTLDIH
Protocol: For LPS treatment, different knockdown (KD) cell lines—Control^KD, CtBP2^KD, p300^KD, and p65^KD, all derived from MPAEpiC—were seeded in 12-well plates and cultured at 37 °C until reaching 80% confluence. The cells were then treated with 200 ng/mL of LPS for 6 h, washed three times with PBS, and subjected to the required experiments. For experiments involving inhibitors of CtBP2, p300, and NF-κB, as well as the compound PNSC928, MPAEpiC, RAW264.7, FL83B, TKPTS, and HL-1 cells were seeded in 12-well plates and cultured at 37 °C to reach 80% confluence. Cells were then cotreated with 200 ng/mL LPS along with varying concentrations of the following chemicals: MTOB (0, 5, 10, or 20 mM), NSC95397 (0, 10, 20, or 40 µM), C646 (0, 3, 6, or 12 µM), A-485 (0, 5, 10, or 20 nM), TPCA1 (0, 150, 300, or 600 nM), BOT64 (0, 1, 2, or 4 µM), or PNSC928 (0, 11.8, 23.6, or 47.2 µM). After 6 h of treatment, cells were washed three times with PBS before proceeding with further experiments. […]
as §1

NF-κB signaling pathway = test: Immunoblots of NF-κB signaling pathway molecules in LPS-treated MPAEpiC cells; assay type: cell-based, mouse; settings: LPS 200 ng/mL + PNSC928 0, 23.6, and 47.2 µM, 6 h
Protocol: For LPS treatment, different knockdown (KD) cell lines—Control^KD, CtBP2^KD, p300^KD, and p65^KD, all derived from MPAEpiC—were seeded in 12-well plates and cultured at 37 °C until reaching 80% confluence. The cells were then treated with 200 ng/mL of LPS for 6 h, washed three times with PBS, and subjected to the required experiments. For experiments involving inhibitors of CtBP2, p300, and NF-κB, as well as the compound PNSC928, MPAEpiC, RAW264.7, FL83B, TKPTS, and HL-1 cells were seeded in 12-well plates and cultured at 37 °C to reach 80% confluence. Cells were then cotreated with 200 ng/mL LPS along with varying concentrations of the following chemicals: MTOB (0, 5, 10, or 20 mM), NSC95397 (0, 10, 20, or 40 µM), C646 (0, 3, 6, or 12 µM), A-485 (0, 5, 10, or 20 nM), TPCA1 (0, 150, 300, or 600 nM), BOT64 (0, 1, 2, or 4 µM), or PNSC928 (0, 11.8, 23.6, or 47.2 µM). After 6 h of treatment, cells were washed three times with PBS before proceeding with further experiments.
Cellular and mouse lung tissue lysates were prepared using the RIPA buffer (Thermo Fisher; #PI89900) supplemented with 1 × complete protease inhibitor cocktail (Thermo Fisher; #87,785). Following a 10-minute centrifugation at 13,000 g, proteins (50 µg) from the cleared lysate were resolved via 10% SDS-PAGE. These separated proteins were electroblotted onto PVDF membranes (Thermo Fisher; #88,585). […]

CC(=CCCC1=CCC(C2COC(=O)C2)OC1O)CCC1=C(C)CCCC1(C)C (stereo not drawn) [PNSC928]
Effect on CtBP2-p300^BRD interaction in pulldown assay [1]: disrupts the CtBP2-p300^BRD interaction in a dose-dependent manner
p300^BRD levels pulled down by CtBP2 (CtBP2-p300 interaction): dose-dependent decrease
Effect on LPS-induced pIKKα, pIκBα, IκBα levels and nuclear translocation of p65 and p50 (NF-κB signaling pathway): did not alter the effects of LPS
